The record followed here is US20260035364A1, “BICYCLIC TETRAHYDROTHIAZEPINE DERIVATIVES” (Hoffmann-La Roche Inc., priority 2022, published 2026).

The test system of one assay is MV-3 cells. The experiment in a line: T-cell - TCB - MV3 killing assay. The note with it: Homo sapiens, 120 h, T-cells + MCSP-TCB on MV-3 RFP cells, 5 d; for Emax: 20 μM reference compound A1 = 100%, read-out: MSCP TCB killing MV-3 cells 5 d Emax; for EC50: read-out: MSCP TCB killing MV-3 cells 5 d EC50. The format is cell-based. As for the experimental part:
All culturing steps are executed at 5% CO2, 37° C. and 95% humidity.
MV-3 RFP cells are cultured in MV-3 medium (DMEM+10% FBS, 1× PenStrep and 0.5 μg/mL Puromycin) for at least 3 weeks. Cultured MV-3 cells at 80% confluency are washed once with PBS−− and trypsinized until detached. […] Cells are seeded with 100 μL/well into a 96-well plate (TTP, #92696), and placed for 40 minutes without moving at room temperature in order to achieve evenly distributed attachment of cells. Plates are then incubated until further use.
On the next day, expanded primary human T-cells are thawed and resuspended in T-cell medium to 4*10^6 cells/mL. For 3 hours, they are cultured in a 6-well plate with 6 mL per well at maximum. After culturing the T-cells, they are filtered through a cell strainer (Miltenyi Biotech, #130-041-407), counted again, and cell concentration is adjusted to 2*10^6 cells/mL.
MCSP-TCB or PBS are pre-diluted in T-cell medium (concentration depending on T-cell donor), 4 times more concentrated than the end-concentration. 60 μL/well of pre-dilutions are then distributed into a round bottom plate (Costar, #3799) according to plate layout. Compounds are added in a 9 pt dose response with the Tecan D300e Digital Dispenser, as well 4 times more concentrated than the end-concentration. DMSO concentration of all wells is adjusted to 0.8%, resulting in 0.2% as final concentration.
60 μL per well of T-cell suspension are added to the prepared round bottom plate and resuspended with a manual multichannel. 100 μL/well of the resuspended T-cell suspension including treatments are then transferred cautiously to the over-night cultured MV-3 cells according to plate layout. 100 μL T-cell medium only is added to the outer MV-3 wells only. Final compound DR is starting at 20 μM with a dilution factor of 3.333. Final TCB concentration is between […] and was determined for each T-cell donor individually by running TCB titrations. For each donor, a TCB concentration was chosen which corresponds to 10-20% of MV3 baseline cell killing in the absence of compound treatment. Positive control is the reference compound A1 which is added in a DR, as well as additional wells with only 20 μM. 20 μM of reference compound A1 represent the positive stimulator control, TCB only (DMSO wells) the neutral control.
After transfer of T-cells with treatment pre-dilutions, MV-3 cells are imaged by time-lapse microscopy using IncucyteZOOM™ (Essen BioScience, MI, USA). Imaging is performed every 3 hours for a total of 120 hours (1OX objective, phase and red image channels, acquisition time 400 ms, Green/Red 4614 optical module). RFP object count per well is analysed in the IncucyteZOOM™ Software (Version 2019B Rev2) with a mask that was previously created and optimized for MV-3 cells. Raw data is exported as object count/well and values are normalized as % TCL compared to wells with MV-3 only, representing 100% growth and therefore 0% TCL.
Calculated % TCL values are analysed in Genedata Screener using Roche Normalization PCT_POS_CTRL with MCSP-TCB only set as Neutral Control and 20 μM of the reference compound A1 set as Stimulator Control/100%.
Induced TCL by compounds without TCB treatment or toxicity (observed in the PBS condition) were be flagged.

The target in the next assay is DGKalpha (Homo sapiens, UniProt P23743). Kind of assay: In vitro DGK inhibition assay (ADP Glo) run by Reaction Biology Corp., DGKalpha. The class given is biochemical. Details: purchased Reaction Biology Corp. (assay service). The note with it: 2 nM kinase, 500 uM DLG, 10-dose duplicate. The procedure:
(§1) DGK α and ζ kinases use ATP to phosphorylate the substrate 1,2-dilauroyl-sn-glycerol (DLG). ATP is converted to ADP as a result of this enzymatic reaction.
(§2) After the kinase reaction, an ATP-depletion reagent is added to terminate the kinase reaction and deplete any remaining ATP, leaving only ADP. Second, a detection reagent is added to simultaneously convert ADP to ATP and allow the newly synthesized ATP to be converted to light using a coupled
(§3) luciferase/luciferin reaction.
(§4) DGK α and ζ kinase ADP Glo assays were ran by Reaction Biology Corp., 1 Great Valley Parkway, Suite 2, Malvern, 19355, PA, USA. Information provided by the service provider are the following: DGK α and ζ kinases were used at 2 nM final concentration. Reactions were carried out at 50 µM ATP. 500 uM of the substrate DLG (Dilauroyl-sn-glycerol) was used.

The target in a further assay is DGKzeta (Homo sapiens, UniProt Q13574). The experiment in a line: In vitro DGK inhibition assay (ADP Glo) run by Reaction Biology Corp., DGKzeta. Details: purchased Reaction Biology Corp. (assay service). Conditions: 2 nM kinase, 500 uM DLG, 10-dose duplicate. The class given is biochemical. The procedure:
as §1, §2, §3, §4

DGKzeta, sequence (Q13574 whole entry, species assumed): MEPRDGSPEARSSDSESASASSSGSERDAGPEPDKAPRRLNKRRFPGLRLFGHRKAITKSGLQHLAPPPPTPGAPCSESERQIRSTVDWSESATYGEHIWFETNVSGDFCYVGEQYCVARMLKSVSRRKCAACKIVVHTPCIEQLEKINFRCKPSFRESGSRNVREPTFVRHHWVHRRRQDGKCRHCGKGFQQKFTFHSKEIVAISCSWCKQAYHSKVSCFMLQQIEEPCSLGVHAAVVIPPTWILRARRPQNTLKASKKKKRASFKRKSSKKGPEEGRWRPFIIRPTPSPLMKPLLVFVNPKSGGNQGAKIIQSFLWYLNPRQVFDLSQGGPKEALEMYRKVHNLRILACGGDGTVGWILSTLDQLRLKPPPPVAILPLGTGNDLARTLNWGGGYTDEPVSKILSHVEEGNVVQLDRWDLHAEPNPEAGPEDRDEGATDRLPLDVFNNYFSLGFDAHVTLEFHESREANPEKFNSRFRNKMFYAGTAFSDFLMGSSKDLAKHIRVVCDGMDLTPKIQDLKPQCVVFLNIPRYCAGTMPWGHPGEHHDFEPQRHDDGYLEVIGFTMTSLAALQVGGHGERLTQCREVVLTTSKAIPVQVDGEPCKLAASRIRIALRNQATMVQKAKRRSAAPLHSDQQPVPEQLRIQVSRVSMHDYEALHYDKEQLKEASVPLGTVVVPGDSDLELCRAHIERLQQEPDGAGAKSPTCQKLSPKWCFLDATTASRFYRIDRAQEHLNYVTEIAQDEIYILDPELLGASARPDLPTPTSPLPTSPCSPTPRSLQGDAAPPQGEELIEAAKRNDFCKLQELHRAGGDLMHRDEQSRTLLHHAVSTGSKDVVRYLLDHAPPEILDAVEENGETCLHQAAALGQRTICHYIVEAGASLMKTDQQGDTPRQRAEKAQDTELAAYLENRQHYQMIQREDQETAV
DGKalpha, sequence (P23743 whole entry, species assumed): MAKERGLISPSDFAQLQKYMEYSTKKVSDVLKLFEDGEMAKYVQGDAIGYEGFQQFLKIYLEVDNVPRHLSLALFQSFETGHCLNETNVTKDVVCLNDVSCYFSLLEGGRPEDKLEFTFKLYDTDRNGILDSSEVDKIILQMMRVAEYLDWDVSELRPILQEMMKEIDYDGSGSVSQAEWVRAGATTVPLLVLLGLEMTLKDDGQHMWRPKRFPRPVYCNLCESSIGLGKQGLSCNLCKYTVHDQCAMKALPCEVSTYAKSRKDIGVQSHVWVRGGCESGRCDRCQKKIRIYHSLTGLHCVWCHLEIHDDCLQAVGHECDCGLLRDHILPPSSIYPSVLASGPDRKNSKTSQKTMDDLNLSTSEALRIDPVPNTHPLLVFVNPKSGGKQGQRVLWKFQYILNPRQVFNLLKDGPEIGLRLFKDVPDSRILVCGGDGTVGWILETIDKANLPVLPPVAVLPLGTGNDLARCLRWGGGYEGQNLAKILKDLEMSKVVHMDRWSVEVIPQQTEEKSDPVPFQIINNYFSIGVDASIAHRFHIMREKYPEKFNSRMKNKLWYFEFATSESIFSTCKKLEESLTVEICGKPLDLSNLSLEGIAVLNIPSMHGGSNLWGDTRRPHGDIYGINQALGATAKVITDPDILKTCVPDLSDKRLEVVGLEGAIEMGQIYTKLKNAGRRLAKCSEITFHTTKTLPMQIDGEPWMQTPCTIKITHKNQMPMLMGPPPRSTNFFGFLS

As to `CC(C)(c1nnc(-c2ccc3c(c2)N(Cc2ccc(Oc4ccccc4)cc2)C(=O)[C@@H](N)CS3(=O)=O)o1)S(C)(=O)=O` [Example 5, (3R)-3-amino-7-[5-(1-methyl-1-methylsulfonyl-ethyl)-1,3,4-oxadiazol-2-yl]-1,1-dioxo-5-[(4-phenoxyphenyl)methyl]-2,3-dihydro-1λ6,5-benzothiazepin-4-one], in the assay on MV-3 cells, the Emax was determined as 154% and the EC50 was 982 nM.
With `CC(C)(c1nc(-c2cc3c(cc2F)S(=O)(=O)C[C@H](N)C(=O)N3Cc2ccc(Oc3ccccc3)cc2)no1)S(C)(=O)=O` [Example 30, (3R)-3-amino-8-fluoro-7-[5-(1-methyl-1-methylsulfonyl-ethyl)-1,2,4-oxadiazol-3-yl]-1,1-dioxo-5-[(4-phenoxyphenyl)methyl]-2,3-dihydro-1λ6,5-benzothiazepin-4-one], the 50% inhibitory concentration (IC50) on DGKalpha was 7.8 nM; on DGKzeta it was 5.5 nM. In addition, the Emax in the assay with MV-3 cells was 100%. Besides, the concentration for a half-maximal effect (EC50) with MV-3 cells came out at 41 nM.
As to `CC(C)(c1nnc(-c2ccc3c(c2)N(Cc2ccc(Oc4cccc(F)c4)cc2)C(=O)[C@@H](N)CS3(=O)=O)o1)S(C)(=O)=O` [Example 33, (3R)-3-amino-5-[[4-(3-fluorophenoxy)phenyl]methyl]-7-[5-(1-methyl-1-methylsulfonyl-ethyl)-1,3,4-oxadiazol-2-yl]-1,1-dioxo-2,3-dihydro-1λ6,5-benzothiazepin-4-one], in the assay with MV-3 cells, the maximum response (Emax) came out at 117% and the concentration for a half-maximal effect (EC50) was 465 nM.
Regarding `CC(C)(c1nnc(-c2ccc3c(c2)N(Cc2ccc(Oc4cccc(Cl)c4)cc2)C(=O)[C@@H](N)CS3(=O)=O)o1)S(C)(=O)=O` [Example 34, (3R)-3-amino-5-[[4-(3-chlorophenoxy)phenyl]methyl]-7-[5-(1-methyl-1-methylsulfonyl-ethyl)-1,3,4-oxadiazol-2-yl]-1,1-dioxo-2,3-dihydro-1λ6,5-benzothiazepin-4-one], in the assay on MV-3 cells, the Emax worked out at 95% and the concentration for a half-maximal effect (EC50) was determined as 392 nM.
Turning to `CC(C)(c1nnc(-c2cc3c(cc2F)S(=O)(=O)C[C@H](N)C(=O)N3Cc2ccc(-c3ccc(C(F)(F)F)cc3)cc2)o1)S(C)(=O)=O` [Example 35, (3R)-3-amino-8-fluoro-7-[5-(1-methyl-1-methylsulfonyl-ethyl)-1,3,4-oxadiazol-2-yl]-1,1-dioxo-5-[[4-[4-(trifluoromethyl)phenyl]phenyl]methyl]-2,3-dihydro-1λ6,5-benzothiazepin-4-one], the IC50 was 7.1 nM on DGKalpha and 6.6 nM against DGKzeta.
On to `CC(C)(c1nnc(-c2ccc3c(c2)N(Cc2ccc(Oc4cccc(C(F)(F)F)c4)cc2)C(=O)[C@@H](N)CS3(=O)=O)o1)S(C)(=O)=O` [Example 38], for which, in the assay with MV-3 cells, the Emax amounted to 102% and the EC50 came out at 112 nM.
For `CC(C)(c1nc(-c2cc3c(cc2F)S(=O)(=O)C[C@H](N)C(=O)N3Cc2ccc(OC(F)(F)F)cc2)no1)S(C)(=O)=O` [Example 44, (3R)-3-amino-8-fluoro-7-[5-(1-methyl-1-methylsulfonyl-ethyl)-1,2,4-oxadiazol-3-yl]-1,1-dioxo-5-[[4-(trifluoromethoxy)phenyl]methyl]-2,3-dihydro-1λ6,5-benzothiazepin-4-one] the same measures were 131% and 65 nM.
For `CC(C)(c1nc(-c2cc3c(cc2F)S(=O)(=O)C[C@H](N)C(=O)N3Cc2ccc(-c3noc(C4CC4)n3)cc2)no1)S(C)(=O)=O` [Example 45, (3R)-3-amino-5-[[4-(5-cyclopropyl-1,2,4-oxadiazol-3-yl)phenyl]methyl]-8-fluoro-7-[5-(1-methyl-1-methylsulfonyl-ethyl)-1,2,4-oxadiazol-3-yl]-1,1-dioxo-2,3-dihydro-1λ6,5-benzothiazepin-4-one] the same measures were 67% and 35 nM.
For `CC(C)(c1nc(-c2cc3c(cc2F)S(=O)(=O)C[C@H](N)C(=O)N3Cc2ccc(-c3noc(C(F)(F)F)n3)cc2)no1)S(C)(=O)=O` [Example 46, (3R)-3-amino-8-fluoro-7-[5-(1-methyl-1-methylsulfonyl-ethyl)-1,2,4-oxadiazol-3-yl]-1,1-dioxo-5-[[4-[5-(trifluoromethyl)-1,2,4-oxadiazol-3-yl]phenyl]methyl]-2,3-dihydro-1λ6,5-benzothiazepin-4-one] the same measures were 65% and 25 nM.
Consider `CC(C)(c1nnc(-c2ccc3c(c2)N(Cc2ccc(-c4ccc(C(F)(F)F)cc4)cc2)C(=O)[C@@H](N)CS3(=O)=O)o1)S(C)(=O)=O` [Example 56, (3R)-3-amino-7-[5-(1-methyl-1-methylsulfonyl-ethyl)-1,3,4-oxadiazol-2-yl]-1,1-dioxo-5-[[4-[4-(trifluoromethyl)phenyl]phenyl]methyl]-2,3-dihydro-1λ6,5-benzothiazepin-4-one], for which the values for the half-maximal inhibitory concentration (IC50) at DGKalpha and on DGKzeta were 67.7 nM and 142 nM, respectively. For the same compound, in the assay on MV-3 cells, the maximal response (Emax) is 100%. In addition, in the assay on MV-3 cells, the half-maximal effective concentration (EC50) came out at 105 nM.
Consider `CC(C)(c1nnc(-c2ccc3c(c2)N(Cc2ccc(-c4ccc(C(F)(F)F)cc4)nc2)C(=O)[C@@H](N)CS3(=O)=O)o1)S(C)(=O)=O` [Example 57, (3R)-3-amino-7-[5-(1-methyl-1-methylsulfonyl-ethyl)-1,3,4-oxadiazol-2-yl]-1,1-dioxo-5-[[6-[4-(trifluoromethyl)phenyl]-3-pyridyl]methyl]-2,3-dihydro-1λ6,5-benzothiazepin-4-one], for which, in the assay on MV-3 cells, the maximal response (Emax) amounted to 104% and the concentration giving a half-maximal response (EC50) came to 1850 nM.
